According to patent US12162890B2 (Novartis AG, priority 2015, dated 2024):

target: HEK293 cells with stable expression of the GRIN1 gene and tetracycline-inducible expression of the GRIN2B gene (NMDA receptor, NR2B) (Homo sapiens, UniProt Q13224); assay: Fluo-8 Ca2+ flux assay: reversal of Ro 25-6981-mediated suppression of the Ca2+ response to co-agonist (glutamate/glycine); type: cell-based; conditions: reversal of the Ro 25-6981 suppression of the Ca2+ response to co-agonist (glutamate/glycine); also: test concentration or dose not given here
Sequence (Q13224 27-1484, other chains not shown): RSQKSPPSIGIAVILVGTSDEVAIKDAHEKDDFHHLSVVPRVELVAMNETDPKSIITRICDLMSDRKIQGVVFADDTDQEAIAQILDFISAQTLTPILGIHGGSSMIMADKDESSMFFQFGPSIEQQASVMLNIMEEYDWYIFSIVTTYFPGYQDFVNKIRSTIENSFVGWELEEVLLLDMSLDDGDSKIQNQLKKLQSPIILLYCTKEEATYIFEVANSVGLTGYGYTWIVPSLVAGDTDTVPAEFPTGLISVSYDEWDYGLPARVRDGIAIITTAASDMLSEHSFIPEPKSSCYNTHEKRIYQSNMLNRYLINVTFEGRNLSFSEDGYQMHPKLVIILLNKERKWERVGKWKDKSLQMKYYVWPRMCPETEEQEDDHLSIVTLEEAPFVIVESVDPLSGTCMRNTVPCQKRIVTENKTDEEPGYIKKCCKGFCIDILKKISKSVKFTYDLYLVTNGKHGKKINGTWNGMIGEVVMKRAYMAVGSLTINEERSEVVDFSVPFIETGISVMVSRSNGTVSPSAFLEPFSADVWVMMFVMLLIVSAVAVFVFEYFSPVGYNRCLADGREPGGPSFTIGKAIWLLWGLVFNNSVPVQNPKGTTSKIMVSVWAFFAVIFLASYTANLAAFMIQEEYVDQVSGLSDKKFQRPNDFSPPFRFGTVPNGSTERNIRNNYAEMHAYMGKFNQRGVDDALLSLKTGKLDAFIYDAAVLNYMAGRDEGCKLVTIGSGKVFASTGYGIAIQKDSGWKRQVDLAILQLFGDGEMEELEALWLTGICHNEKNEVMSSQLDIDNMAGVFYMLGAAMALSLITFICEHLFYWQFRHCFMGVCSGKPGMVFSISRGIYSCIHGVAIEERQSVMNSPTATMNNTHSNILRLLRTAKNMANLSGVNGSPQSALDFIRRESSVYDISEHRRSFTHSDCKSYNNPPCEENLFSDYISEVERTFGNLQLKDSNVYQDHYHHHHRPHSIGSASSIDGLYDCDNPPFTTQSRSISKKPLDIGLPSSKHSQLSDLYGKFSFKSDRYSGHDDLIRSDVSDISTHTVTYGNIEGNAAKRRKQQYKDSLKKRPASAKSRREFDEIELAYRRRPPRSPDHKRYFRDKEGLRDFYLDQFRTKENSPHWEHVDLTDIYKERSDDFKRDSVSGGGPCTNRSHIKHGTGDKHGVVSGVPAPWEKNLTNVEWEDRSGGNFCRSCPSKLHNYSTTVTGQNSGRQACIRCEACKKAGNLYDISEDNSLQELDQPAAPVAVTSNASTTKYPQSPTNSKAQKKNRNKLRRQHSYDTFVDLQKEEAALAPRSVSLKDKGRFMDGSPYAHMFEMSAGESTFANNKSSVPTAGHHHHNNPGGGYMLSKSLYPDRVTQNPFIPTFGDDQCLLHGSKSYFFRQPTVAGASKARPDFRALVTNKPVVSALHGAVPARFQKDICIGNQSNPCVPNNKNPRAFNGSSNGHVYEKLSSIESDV

SMILES	Response Recovered (%)
O=C(Cn1ccc2scc(-c3ccc(Cl)c(C(F)(F)F)c3)c2c1=O)N1CCCC1 [Example 1, 3-(4-chloro-3-(trifluoromethyl)phenyl)-5-(2-oxo-2-(pyrrolidin-1-yl)ethyl)thieno[3,2-c]pyridin-4(5H)-one]	83
O=C(Cn1ccc2scc(-c3ccc(Cl)c(F)c3)c2c1=O)N1CCCC1 [Example 2, 3-(4-chloro-3-fluorophenyl)-5-(2-oxo-2-(pyrrolidin-1-yl)ethyl)thieno[3,2-c]pyridin-4(5H)-one]	34
O=C(Cn1ccc2scc(-c3ccc(F)c(Cl)c3)c2c1=O)N1CCCC1 [Example 3, 3-(3-chloro-4-fluorophenyl)-5-(2-oxo-2-(pyrrolidin-1-yl)ethyl)thieno[3,2-c]pyridin-4(5H)-one]	60
O=C(Cn1ccc2scc(-c3ccc(Cl)c(C(F)(F)F)c3)c2c1=O)N1CCC(F)C1 (stereo not drawn) [Example 4, 3-(4-chloro-3-(trifluoromethyl)phenyl)-5-(2-(3-fluoropyrrolidin-1-yl)-2-oxoethyl)thieno[3,2-c]pyridin-4(5H)-one]	107
O=C(Cn1ccc2scc(-c3ccc(Cl)c(C(F)(F)F)c3)c2c1=O)N1CC(F)(F)C1 [Example 5, 3-(4-chloro-3-(trifluoromethyl)phenyl)-5-(2-(3,3-difluoroazetidin-1-yl)-2-oxoethyl)thieno[3,2-c]pyridin-4(5H)-one]	139
O=C(Cn1ccc2scc(-c3ccc(Cl)c(F)c3)c2c1=O)N1CC(F)(F)C1 [Example 6, 3-(4-chloro-3-fluorophenyl)-5-(2-(3,3-difluoroazetidin-1-yl)-2-oxoethyl)thieno[3,2-c]pyridin-4(5H)-one]	41
O=C(Cn1ccc2scc(-c3ccc(Cl)c(F)c3)c2c1=O)N1CCC(F)C1 (stereo not drawn) [Example 7, 3-(4-chloro-3-fluorophenyl)-5-(2-(3-fluoropyrrolidin-1-yl)-2-oxoethyl)thieno[3,2-c]pyridin-4(5H)-one]	49
O=C(Cn1ccc2scc(-c3ccc(F)c(Cl)c3)c2c1=O)N1CC(F)(F)C1 [Example 8, 3-(3-Chloro-4-fluorophenyl)-5-[2-(3,3-difluoro-azetidin-1-yl)-2-oxo-ethyl]-5H-thieno[3,2-c]pyridin-4-one]	66
O=C(Cn1ccc2scc(-c3ccc(F)c(Cl)c3)c2c1=O)N1CCC(F)C1 (stereo not drawn) [Example 9, 3-(3-Chloro-4-fluoro-phenyl)-5-[2-(3-fluoro-pyrrolidin-1-yl)-2-oxo-ethyl]-5H-thieno[3,2-c]pyridin-4-one]	81
O=C(Cn1ccc2scc(-c3ccc(Cl)c(Cl)c3)c2c1=O)N1CCC(F)C1 (stereo not drawn) [Example 10, 3-(3,4-dichlorophenyl)-5-(2-(3-fluoropyrrolidin-1-yl)-2-oxoethyl)thieno[3,2-c]pyridin-4(5H)-one]	102
O=C(Cn1ccc2scc(-c3ccc(F)c(C(F)(F)F)c3)c2c1=O)N1CCC(F)C1 (stereo not drawn) [Example 11, 3-(4-fluoro-3-(trifluoromethyl)phenyl)-5-(2-(3-fluoropyrrolidin-1-yl)-2-oxoethyl)thieno[3,2-c]pyridin-4(5H)-one]	99
O=C(Cn1ccc2scc(-c3cnc(Cl)c(Cl)c3)c2c1=O)N1CCC(F)C1 (stereo not drawn) [Example 12, 3-(5,6-dichloropyridin-3-yl)-5-(2-(3-fluoropyrrolidin-1-yl)-2-oxoethyl)thieno[3,2-c]pyridin-4(5H)-one]	35
O=C(Cn1ccc2scc(-c3ccc(C(F)(F)F)c(Cl)c3)c2c1=O)N1CCC(F)C1 (stereo not drawn) [Example 13, 3-(3-chloro-4-(trifluoromethyl)phenyl)-5-(2-(3-fluoropyrrolidin-1-yl)-2-oxoethyl)thieno[3,2-c]pyridin-4(5H)-one]	90
O=C(Cn1ccc2scc(-c3ccc(Cl)c(C(F)(F)F)c3)c2c1=O)N1C[C@@H](F)[C@@H](F)C1 [Example 14, 3-(4-chloro-3-(trifluoromethyl)phenyl)-5-(2-((3S,4R)-3,4-difluoropyrrolidin-1-yl)-2-oxoethyl)thieno[3,2-c]pyridin-4(5H)-one]	99
O=C(Cn1ccc2scc(-c3ccc(Cl)c(C(F)(F)F)c3)c2c1=O)N1CC[C@H](F)C1 [Example 15, (S)-3-(4-chloro-3-(trifluoromethyl)phenyl)-5-(2-(3-fluoropyrrolidin-1-yl)-2-oxoethyl)thieno[3,2-c]pyridin-4(5H)-one]	95
O=C(Cn1ccc2scc(-c3ccc(Cl)c(Cl)c3)c2c1=O)N1C[C@@H](F)[C@@H](F)C1 [Example 16, 3-(3,4-dichlorophenyl)-5-(2-((3S,4R)-3,4-difluoropyrrolidin-1-yl)-2-oxoethyl)thieno[3,2-c]pyridin-4(5H)-one]	107
O=C(Cn1ccc2scc(-c3ccc(Cl)c(C(F)(F)F)c3)c2c1=O)N1CC[C@@H](F)C1 [Example 17, (R)-3-(4-chloro-3-(trifluoromethyl)phenyl)-5-(2-(3-fluoropyrrolidin-1-yl)-2-oxoethyl)thieno[3,2-c]pyridin-4(5H)-one]	99
CC1(F)CN(C(=O)Cn2ccc3scc(-c4ccc(Cl)c(F)c4)c3c2=O)C1 [Example 18, 3-(4-chloro-3-fluorophenyl)-5-(2-(3-fluoro-3-methylazetidin-1-yl)-2-oxoethyl)thieno[3,2-c]pyridin-4(5H)-one]	120
CC1(F)CN(C(=O)Cn2ccc3scc(-c4cnc(F)c(Cl)c4)c3c2=O)C1 [Example 19, 3-(5-chloro-6-fluoropyridin-3-yl)-5-(2-(3-fluoro-3-methylazetidin-1-yl)-2-oxoethyl)thieno[3,2-c]pyridin-4(5H)-one]	35
CC1(F)CN(C(=O)Cn2ccc3scc(-c4ccc(F)c(F)c4)c3c2=O)C1 [Example 20, 3-(3,4-difluorophenyl)-5-(2-(3-fluoro-3-methylazetidin-1-yl)-2-oxoethyl)thieno[3,2-c]pyridin-4(5H)-one]	41
CC1(F)CN(C(=O)Cn2ccc3scc(-c4ccc(Cl)c(C(F)(F)F)c4)c3c2=O)C1 [Example 21, 3-(4-chloro-3-(trifluoromethyl)phenyl)-5-(2-(3-fluoro-3-methylazetidin-1-yl)-2-oxoethyl)thieno[3,2-c]pyridin-4(5H)-one]	120
Cc1cc(-c2csc3ccn(CC(=O)N4CC(C)(F)C4)c(=O)c23)ccc1Cl [Example 22, 3-(4-chloro-3-methylphenyl)-5-(2-(3-fluoro-3-mehtylazetidin-1-yl)-2-oxoethyl)thieno[3,2-c]pyridin-4(5H)-one]	130
Cc1cc(-c2csc3ccn(CC(=O)N4CC(C)(F)C4)c(=O)c23)ccc1F [Example 23, 5-(2-(3-fluoro-3-methylazetidin-1-yl)-2-oxoethyl)-3-(4-fluoro-3-methylphenyl)thieno[3,2-c]pyridin-4(5H)-one]	100
O=C(CCn1ccc2scc(-c3ccc(Cl)c(C(F)(F)F)c3)c2c1=O)N1CCC(F)C1 (stereo not drawn) [Example 24, 3-(4-chloro-3-(trifluoromethyl)phenyl)-5-(3-(3-fluoropyrrolidin-1-yl)-3-oxopropyl)thieno[3,2-c]pyridin-4(5H)-one]	3
